Experimental data: patent publication US20240300923A1, “IRAK4 Inhibitors” (ASTRAZENECA AB, priority 2022, published 2024)

Tests used:
IRAK4 [1] = target: T1, IRAK4 (Homo sapiens (Human), UniProt Q9NWZ3); experiment: IRAK4 enzyme assay (mass spectrometry readout); assay type: biochemical; conditions: human recombinant IRAK4 0.2 nM, 3 mM ATP; geometric mean of at least 2 experiments
Experimental: Potency of IRAK4 Inhibitor Compounds in IRAK4 Enzyme Assay
The inhibitory activity of compounds against IRAK4 were determined in an enzymatic assay using mass spectrometry readout. Ten point half-log compound concentration response curves, with a top concentration of 1 μM or 10 μM, were generated from 10 mM stocks of compound solubilized in DMSO using an Echo 655 (Labcyte Inc) and added to 384 well assay plates (Greiner #781280). To the assay plates, 10 μL of human recombinant IRAK4 protein (Life Technologies #PV4002) diluted to a final concentration of 0.2 nM in assay buffer (50 mM Tris-HCl pH 7.4, 10 mM MgCl, 5 mM glutathione, 0.01% BSA, 3 mM ATP) was added. The enzyme was incubated with the compounds at room temperature for 15 minutes before a peptide substrate ([…], Innovagen custom synthesis, 10 mM in DMSO) was added to each well to a final concentration of 10 μM using an Echo 655 (Labcyte Inc). After two hours at room temperature, the reaction was stopped with 65 μL of 0.4% formic acid (Merck #33015). The unphosphorylated and phosphorylated peptide were measured by LC-MS/MS on a Waters TQ-S mass spectrometer. Peaks were integrated using the TargetLynx software and the ratios between phosphorylated and unphosphorylated peptides were calculated. Curves were fitted and compound potencies determined in Genedata Screener 19 (Genedata AG). IC50 values are the geometric mean of at least 2 experiments.

IRAK4 [2] = target: T1, IRAK4; experiment: IRAK4 phosphorylation cell assay (IL-1β-stimulated Karpas-299 cells); assay type: cell-based; conditions: IRAK4 auto-phosphorylation (pIRAK4 Thr345/Ser346) in IL-1β-stimulated Karpas-299 cells; geometric mean of at least 2 experiments
Experimental: IRAK4 Phosphorylation Cell Assay
The activation of IRAK4 by TLR or IL-1R ligands leads to IRAK4 auto-phosphorylation, which can be prevented by IRAK4 kinase inhibitors. The effect of IRAK4 inhibitor compounds on IRAK4 auto-phosphorylation was assessed in IL-1β-stimulated Karpas-299 cells as a measurement of cellular potency. Karpas-299 cells were cultured in RPMI 1640 (Gibco 61870-010) containing 10% FBS (Gibco #10270). Cells were plated at 2×10^4 cells per well in poly-D-lysine coated 384 well plates (Corning #356663) to which compounds had been added at various concentrations (10 point half log dose response with a final top concentration of 30 μM) using an Echo 655 (Labcyte Inc). Cells were centrifuged (250 g, 4 mins), incubated at 37° C. for 1 h, then stimulated with 22.7 ng/mL recombinant IL-1β (R&D Systems, #201-LB-025) at 37° C. for 10 mins, followed by fixation in 4% paraformaldehyde for 20 mins and permeabilization in ice-cold 70% MeOH in PBS for 30 mins. Cells were washed twice with phosphate-buffered saline (PBS) on a BlueWasher (BlueCatBio) then blocked with PBS containing 10% FBS for 20 mins. Blocking solution was removed with a BlueWasher and cells were stained with anti-pIRAK4 (Thr345/Ser346) (CST, #11927, 1:400) in blocking buffer with 0.05% Tween-20 for 1 h, then washed twice with PBS containing 0.05% Tween-20 on a BlueWasher, followed by staining with a Alexa 647-conjugated secondary anti-rabbit IgG antibody (CST, #4414, 1:2,000) and Hoechst 33342 (Sigma, 1:2,000) in blocking buffer with 0.05% Tween-20 for 30 mins. Finally, the cells were washed twice with PBS containing 0.05% Tween-20 and imaged on an ImageXpress Micro (Molecular Devices) with a 10× air objective using the appropriate filters. Images were analysed in Columbus (PerkinElmer) and the fluorescence intensity per cell from the secondary antibody was quantified. The quantified data were analysed in Genedata Screener 19 (Genedata AG). […] IC50 values are the geometric mean of at least 2 experiments.

[3] = Human plasma protein binding, equilibrium dialysis (RED device); assay type: in vitro ADME; conditions: for fraction unbound at 18 h, 5 μM: human, plasma, pH 7.4
Text: Plasma protein binding may have important implications on the pharmacokinetic behaviour of drugs. This is especially true for highly bound drugs, where the fraction unbound (fu) drug in plasma is an important parameter in the interpretation of in-vivo experiments. Traditionally, there are several different techniques used to determine the extent of drug binding to plasma proteins and equilibrium dialysis is probably the most common.
This method describes our current automated equilibrium dialysis assay in human plasma using the RED (Rapid Equilibrium Dialysis) Device and Hamilton sample handling system, described in WernevikJ et al. (2020) “A Fully Integrated Assay Panel for Early Drug Metabolism and Pharmacokinetics Profiling” Assay. Drug. Dev. Technol 18:157-179; DOI 10.1089/adt.2020.970.
The assay generally runs over three days including delivery of results. The pooled compounds are diluted in plasma to 5 μM and added to the inner chamber of the RED device and a phosphate buffer (pH 7.4) to the surrounding chamber to allow equilibrium dialysis over a semipermeable membrane with a molecular weight cut off at 8 kDa. The 5 μM solutions are also used to establish compound stability in plasma and recovery (mass balance) in the RED devices, with sampling performed at both the 0 and 18 h timepoints. Low recovery indicates binding to the dialysis equipment or solubility issues.
After dialysis for 18 hours, plasma and buffer samples are prepared for analysis by liquid chromatography and mass spectrometry (LC/MSMS). A seven-point calibration curve in plasma, ranging from 1.4 nM to 7 μM, is used to quantify the samples. All samples including the calibration curve, also contain an internal standard (IS) to allow for normalization between variations in injection volume in the UPLC-MS/MS instrumentation.
Three quality controls (QCs) are used in each run. Warfarin with low fu (fu mean ˜1%) is used as a control in each pool. Propranolol (˜30%) and Metoprolol (˜90%) are placed randomly in each run. The controls are monitored in the “Manhattan tool” (Winiwarter et al. (2015) “Time dependent analysis of assay comparability: a novel approach to understand intra-and inter-site variability over time” J. Comput. Aided Mol. Des. 29:795-807; DOI10.1007/s10822-015-9836-5), that defines the acceptance criteria for the QCs as 2.58×standard deviation.

human cKit kinase = human cKit kinase (Homo sapiens (Human), UniProt P10721); experiment: cKit enzyme assay (LANCE, Eurofins CEREP); assay type: biochemical; conditions: human recombinant enzyme, 50 μM ATP; geometric mean of at least n=2, * = single experiment
Chain of human cKit kinase (P10721 26-976): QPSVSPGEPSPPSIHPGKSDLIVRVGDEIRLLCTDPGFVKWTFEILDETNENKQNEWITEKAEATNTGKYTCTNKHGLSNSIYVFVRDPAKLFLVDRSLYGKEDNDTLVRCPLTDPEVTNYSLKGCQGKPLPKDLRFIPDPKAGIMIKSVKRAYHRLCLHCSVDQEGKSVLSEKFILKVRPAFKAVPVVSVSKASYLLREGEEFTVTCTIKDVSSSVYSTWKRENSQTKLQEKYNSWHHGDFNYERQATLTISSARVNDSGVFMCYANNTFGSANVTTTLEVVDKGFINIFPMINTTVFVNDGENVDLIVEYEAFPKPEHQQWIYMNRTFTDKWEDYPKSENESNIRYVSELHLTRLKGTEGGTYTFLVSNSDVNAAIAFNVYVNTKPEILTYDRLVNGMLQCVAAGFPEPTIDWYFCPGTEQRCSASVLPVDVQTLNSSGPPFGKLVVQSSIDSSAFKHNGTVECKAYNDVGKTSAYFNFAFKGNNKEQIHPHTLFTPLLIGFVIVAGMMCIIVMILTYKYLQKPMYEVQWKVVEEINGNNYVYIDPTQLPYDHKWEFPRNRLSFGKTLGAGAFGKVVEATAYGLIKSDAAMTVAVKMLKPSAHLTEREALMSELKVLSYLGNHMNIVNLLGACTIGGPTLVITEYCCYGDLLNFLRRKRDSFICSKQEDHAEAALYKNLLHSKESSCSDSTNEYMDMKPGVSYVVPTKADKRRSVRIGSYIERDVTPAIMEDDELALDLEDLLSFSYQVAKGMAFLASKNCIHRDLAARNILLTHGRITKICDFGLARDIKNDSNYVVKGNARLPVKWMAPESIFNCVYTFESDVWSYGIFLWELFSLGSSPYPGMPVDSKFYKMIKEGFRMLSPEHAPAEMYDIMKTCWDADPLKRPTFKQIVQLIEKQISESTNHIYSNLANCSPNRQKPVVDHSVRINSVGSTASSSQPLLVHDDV
Experimental: Potency of IRAK4 Inhibitor Compounds in cKit Enzyme Assay
Evaluation of the effects of the IRAK4 inhibitor compounds on the activity of the human cKit kinase quantified by measuring the phosphorylation of the substrate Ulight-TK peptide using a human recombinant enzyme and the LANCE® detection method at Eurofins CEREP, catalog item 3070, SOP no 1C768: The test compound, reference compound or water (control) are mixed with the enzyme (0.38 ng) in a buffer containing 40 mM Hepes/Tris (pH 7.4), 0.8 mM EGTA/Tris, 8 mM MgCl2, 1.6 mM DTT and 0.008% Tween 20. Thereafter, the reaction is initiated by adding 100 nM of the substrate Ulight-TK peptide and 50 μM ATP, and the mixture is incubated for 30 min at room temperature. For control basal measurements, the enzyme is omitted from the reaction mixture. Following incubation, the reaction is stopped by adding 13 mM EDTA. After 5 min, the anti-phopho-PT66 antibody labeled with europium chelate is added. After 60 more min, the fluorescence transfer is measured at lex=337 nm, lem=620 nm and lem=665 nm using a microplate reader (Envision, Perkin Elmer). The enzyme activity is determined by dividing the signal measured at 665 nm by that measured at 620 nm (ratio). The results are expressed as a percent inhibition of the control enzyme activity. The standard inhibitory reference compound is staurosporine, which is tested in each experiment at several concentrations to obtain an inhibition curve from which its IC50 value is calculated.
Data presented are the geometric mean of at least n=2, or as denoted by an*are obtained from a single experiment. […] Kinase selectivity can be a key determinant of clinical utility as off target toxicity can be reduced or eliminated.

T1 sequence (Q9NWZ3 whole entry): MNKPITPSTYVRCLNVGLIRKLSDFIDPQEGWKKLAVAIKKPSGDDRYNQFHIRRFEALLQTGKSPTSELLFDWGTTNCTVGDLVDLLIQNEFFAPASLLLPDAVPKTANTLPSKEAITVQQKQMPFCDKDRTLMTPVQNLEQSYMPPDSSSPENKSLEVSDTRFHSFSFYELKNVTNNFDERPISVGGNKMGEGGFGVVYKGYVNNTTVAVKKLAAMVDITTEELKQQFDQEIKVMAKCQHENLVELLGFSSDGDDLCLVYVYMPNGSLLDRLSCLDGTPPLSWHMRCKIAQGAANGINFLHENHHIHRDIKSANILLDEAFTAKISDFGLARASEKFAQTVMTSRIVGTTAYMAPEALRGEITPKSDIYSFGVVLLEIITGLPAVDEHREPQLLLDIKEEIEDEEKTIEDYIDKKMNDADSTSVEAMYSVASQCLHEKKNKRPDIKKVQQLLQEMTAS

Structure (SMILES) | IC50 (IRAK4 [1]) [µM] | IC50 (IRAK4 [2]) [µM] | Hu PPB (% free) ([3]; human plasma, 5 μM, dialysis 18 hours, single experiment or average of two or more) | IC50 (human cKit kinase) [µM] | fraction unbound at 18 h, 5 μM [3]
COc1cc2nn([C@H]3CC[C@@]4(CC3)COC(=O)N4C)cc2cc1C(=O)Nc1cccn(C)c1=O [Example 20, 6-Methoxy-N-(1-methyl-2-oxo-1,2-dihydropyridin-3-yl)-2-((5s,8s)-1-methyl-2-oxo-3-oxa-1-azaspiro[4.5]decan-8-yl)-2H-indazole-5-carboxamide] | 0.0056 | 0.128 | 14 |  | 
COc1cc2nn([C@H]3CC[C@H](n4cncn4)CC3)cc2cc1C(=O)Nc1cccn(C)c1=O [Example 26, 2-((1r,4r)-4-(1H-1,2,4-Triazol-1-yl)cyclohexyl)-6-methoxy-N-(1-methyl-2-oxo-1,2-dihydropyridin-3-yl)-2H-indazole-5-carboxamide] | 0.0022 | 0.038 |  | > 100 | 
COc1cc2nn([C@H]3CC[C@H](n4ccnn4)CC3)cc2cc1C(=O)Nc1cccn(C)c1=O [Example 27, 2-((1r,4r)-4-(1H-1,2,3-Triazol-1-yl)cyclohexyl)-6-methoxy-N-(1-methyl-2-oxo-1,2-dihydropyridin-3-yl)-2H-indazole-5-carboxamide] | 0.0015 | 0.039 |  | > 100 | 
COc1cc2nn([C@H]3CC[C@H](n4cc(C(C)(C)O)nn4)CC3)cc2cc1C(=O)Nc1cccn(C)c1=O [Example 30, 2-((1r,4r)-4-(4-(2-Hydroxypropan-2-yl)-1H-1,2,3-triazol-1-yl)cyclohexyl)-6-methoxy-N-(1-methyl-2-oxo-1,2-dihydropyridin-3-yl)-2H-indazole-5-carboxamide] | 0.001 | 0.022 |  | 6.9 | 
COCCc1ccc(OCC(O)CNC(C)C)cc1 (stereo not drawn) [Metoprolol] |  |  |  |  | ~0.9
CC(C)NCC(O)COc1cccc2ccccc12 (stereo not drawn) [Propranolol] |  |  |  |  | ~0.3
CC(=O)CC(c1ccccc1)c1c(O)c2ccccc2oc1=O (stereo not drawn) [Warfarin] |  |  |  |  | ~0.01
